Usually IC50 stands for the midpoint of a concentration-inhibition curve.

Read-outs that look alike come from different tables or passages of the source.

This note sets out measurements from patent publication US10040781B2, “Tank-binding kinase inhibitor compounds” (Gilead Sciences, Inc., priority 2014, dated 2018).

One assay deals with IKKε (Homo sapiens (Human), UniProt Q14164). The assay is described as follows: IKKε TR-FRET enzymatic assay. The class given is biochemical. As to conditions: read-out: IKKe IC50. (Time-resolved FRET reads energy transfer from a long-lived donor to a nearby acceptor.)
The target of another assay is hJAK2 (Homo sapiens (Human), UniProt O60674). The assay is described as follows: hJAK2 LANCE TR-FRET enzymatic assay. The class given is biochemical. As to conditions: read-out: JAK2 IC50.
The next assay deals with TBK1 (Homo sapiens (Human), UniProt Q9UHD2). The assay is described as follows: TBK1 TR-FRET enzymatic assay.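 Further: phosphorylation of a biotinylated Ser/Thr peptide by purified full-length recombinant TBK1, read by TR-FRET after 240 min at 25 °C, IC50 is the geometric mean of at least four runs.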
Where [1] appears, read: TR-FRET, 2×Km ATP, geometric mean of minimum four determinations.

Chain of hJAK2 (O60674 whole entry): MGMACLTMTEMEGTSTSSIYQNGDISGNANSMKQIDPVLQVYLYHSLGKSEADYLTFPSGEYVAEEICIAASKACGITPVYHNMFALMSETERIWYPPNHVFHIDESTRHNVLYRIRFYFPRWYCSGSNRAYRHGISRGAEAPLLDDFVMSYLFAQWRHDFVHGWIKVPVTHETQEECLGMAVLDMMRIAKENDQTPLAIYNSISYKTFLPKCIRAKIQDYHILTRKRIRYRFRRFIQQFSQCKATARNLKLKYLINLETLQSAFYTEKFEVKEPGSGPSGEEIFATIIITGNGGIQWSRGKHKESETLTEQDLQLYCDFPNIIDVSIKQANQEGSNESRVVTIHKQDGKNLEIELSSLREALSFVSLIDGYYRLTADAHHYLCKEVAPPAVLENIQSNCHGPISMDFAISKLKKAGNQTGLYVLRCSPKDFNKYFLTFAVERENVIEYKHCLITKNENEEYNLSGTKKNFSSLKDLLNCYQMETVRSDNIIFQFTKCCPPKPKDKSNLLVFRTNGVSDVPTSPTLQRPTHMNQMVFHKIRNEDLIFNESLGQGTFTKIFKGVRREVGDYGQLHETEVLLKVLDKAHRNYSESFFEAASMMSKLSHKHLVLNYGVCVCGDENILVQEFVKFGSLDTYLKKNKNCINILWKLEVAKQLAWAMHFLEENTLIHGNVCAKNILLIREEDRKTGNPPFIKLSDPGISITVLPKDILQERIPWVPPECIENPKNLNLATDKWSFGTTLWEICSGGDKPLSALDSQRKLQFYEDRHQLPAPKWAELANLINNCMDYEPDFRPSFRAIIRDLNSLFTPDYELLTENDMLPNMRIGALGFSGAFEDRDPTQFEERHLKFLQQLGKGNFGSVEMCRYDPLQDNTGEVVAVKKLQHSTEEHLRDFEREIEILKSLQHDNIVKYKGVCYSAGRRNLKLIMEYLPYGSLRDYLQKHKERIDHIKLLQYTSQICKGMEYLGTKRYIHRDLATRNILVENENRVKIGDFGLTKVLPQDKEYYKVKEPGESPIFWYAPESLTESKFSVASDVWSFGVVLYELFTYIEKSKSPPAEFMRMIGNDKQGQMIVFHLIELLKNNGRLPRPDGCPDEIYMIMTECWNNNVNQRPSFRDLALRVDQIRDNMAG
Chain of IKKε (Q14164 whole entry): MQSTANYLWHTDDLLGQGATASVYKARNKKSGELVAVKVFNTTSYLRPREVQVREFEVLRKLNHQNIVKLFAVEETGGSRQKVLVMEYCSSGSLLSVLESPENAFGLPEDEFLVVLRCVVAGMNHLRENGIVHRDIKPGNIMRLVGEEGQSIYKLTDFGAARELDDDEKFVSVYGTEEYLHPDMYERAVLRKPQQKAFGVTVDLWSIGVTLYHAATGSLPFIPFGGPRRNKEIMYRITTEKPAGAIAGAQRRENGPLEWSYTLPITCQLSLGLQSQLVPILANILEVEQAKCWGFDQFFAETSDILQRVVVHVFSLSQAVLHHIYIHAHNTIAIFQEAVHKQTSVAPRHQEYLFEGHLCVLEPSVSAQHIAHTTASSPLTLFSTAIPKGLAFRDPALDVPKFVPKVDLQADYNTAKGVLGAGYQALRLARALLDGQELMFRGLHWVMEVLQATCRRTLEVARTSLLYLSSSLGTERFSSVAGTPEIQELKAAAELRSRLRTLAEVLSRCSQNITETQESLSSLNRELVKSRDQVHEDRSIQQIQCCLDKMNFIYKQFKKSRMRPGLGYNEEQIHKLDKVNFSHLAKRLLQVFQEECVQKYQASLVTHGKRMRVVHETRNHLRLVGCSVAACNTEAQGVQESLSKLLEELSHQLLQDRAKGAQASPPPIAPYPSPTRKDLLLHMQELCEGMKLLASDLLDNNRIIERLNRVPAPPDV
Chain of TBK1 (Q9UHD2 whole entry): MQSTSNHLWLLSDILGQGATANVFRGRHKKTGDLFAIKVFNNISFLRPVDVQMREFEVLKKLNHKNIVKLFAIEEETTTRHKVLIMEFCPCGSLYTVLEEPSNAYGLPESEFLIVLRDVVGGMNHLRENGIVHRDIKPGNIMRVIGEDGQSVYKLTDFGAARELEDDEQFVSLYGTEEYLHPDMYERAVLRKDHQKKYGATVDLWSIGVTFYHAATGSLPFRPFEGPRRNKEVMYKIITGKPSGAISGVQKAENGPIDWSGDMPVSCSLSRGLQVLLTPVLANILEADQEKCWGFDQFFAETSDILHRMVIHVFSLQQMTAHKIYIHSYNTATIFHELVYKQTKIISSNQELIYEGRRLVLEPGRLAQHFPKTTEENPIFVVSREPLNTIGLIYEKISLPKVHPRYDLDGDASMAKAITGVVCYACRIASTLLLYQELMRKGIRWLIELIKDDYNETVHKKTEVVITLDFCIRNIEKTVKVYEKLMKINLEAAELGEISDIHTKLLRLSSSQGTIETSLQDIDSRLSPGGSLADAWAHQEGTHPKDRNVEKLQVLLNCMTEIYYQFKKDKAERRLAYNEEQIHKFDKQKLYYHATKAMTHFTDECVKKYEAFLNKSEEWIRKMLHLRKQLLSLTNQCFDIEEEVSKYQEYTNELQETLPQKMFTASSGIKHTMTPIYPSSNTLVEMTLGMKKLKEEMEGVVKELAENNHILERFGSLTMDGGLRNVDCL

For the molecule `C[C@H]1C[C@@H](Oc2ccc(-c3ncnc(Nc4ccc(N5CCN(C6COC6)CC5)cc4)n3)cc2C#N)CN1C(=O)CO` [Example 100, 2-(((3R,5S)-1-(2-hydroxyacetyl)-5-methylpyrrolidin-3-yl)oxy)-5-(4-((4-(4-(oxetan-3-yl)piperazin-1-yl)phenyl)amino)-1,3,5-triazin-2-yl)benzonitrile], the IC50 stood at 249 nM at IKKε, 525 nM on hJAK2 and 121 nM against TBK1.

`N#Cc1cc(-c2ncnc(Nc3ccc(N4CCN(C5COC5)CC4)cc3)n2)ccc1O[C@H]1CCN(C(=O)c2[nH]ncc2Cl)C[C@H]1F` [Example 322, 2-(((3R,4S)-1-(4-chloro-1H-pyrazole-5-carbonyl)-3-fluoropiperidin-4-yl)oxy)-5-(4-((4-(4-(oxetan-3-yl)piperazin-1-yl)phenyl)amino)-1,3,5-triazin-2-yl)benzonitrile]: the IC50 on IKKε amounted to 8 nM; on hJAK2, 192 nM; against TBK1, 5 nM.

Consider `CC1(C)CN(C(=O)CC#N)C[C@H](F)[C@@H]1Oc1ccc(-c2ncnc(Nc3ccc(N4CCN(C5COC5)CC4)cc3)n2)cc1C#N` [Example 449, 2-(((4R,5S)-1-(2-cyanoacetyl)-5-fluoro-3,3-dimethylpiperidin-4-yl)oxy)-5-(4-((4-(4-(oxetan-3-yl)piperazin-1-yl)phenyl)amino)-1,3,5-triazin-2-yl)benzonitrile], for which the IC50 at IKKε (setting [1]) is 59 nM; on hJAK2 it was 443 nM; at TBK1, 35 nM.

`N#Cc1cc(-c2ncnc(Nc3ccc(N4CCNCC4)c(F)c3)n2)ccc1O[C@H]1CCN(C=O)C[C@H]1F` [Example 296, 2-(((3R,4S)-3-fluoro-1-formylpiperidin-4-yl)oxy)-5-(4-((3-fluoro-4-(piperazin-1-yl)phenyl)amino)-1,3,5-triazin-2-yl)benzonitrile]: the IC50 at IKKε was determined as 1 nM; at hJAK2, 274 nM; against TBK1, 3 nM.

For the molecule `C[C@H]1C[C@@H](O)CN1c1ccc(-c2ncnc(Nc3ccc(N4CCN(C5COC5)CC4)cc3)n2)cc1C#N` [Example 205, 2-((2S,4R)-4-hydroxy-2-methylpyrrolidin-1-yl)-5-(4-((4-(4-(oxetan-3-yl)piperazin-1-yl)phenyl)amino)-1,3,5-triazin-2-yl)benzonitrile], the figures for the IC50 on IKKε, on hJAK2 and against TBK1 were 17 nM, 51 nM and 1 nM, respectively.

Consider `N#Cc1cc(-c2ncnc(Nc3ccc(N4CCN(C5COC5)CC4)cc3)n2)ccc1N1CC[C@H](O)C1` [Example 203, (S)-2-(3-hydroxypyrrolidin-1-yl)-5-(4-((4-(4-(oxetan-3-yl)piperazin-1-yl)phenyl)amino)-1,3,5-triazin-2-yl)benzonitrile], for which the IC50 at IKKε was found to be 27 nM; on hJAK2, 315 nM; against TBK1, 7 nM.

Turning to `C[C@H]1CN(C(=O)CO)CC(F)(F)[C@H]1Oc1ccc(-c2ncnc(Nc3ccc(N4CCN(C5COC5)CC4)cc3)n2)cc1C#N` (relative stereo) [Example 430, Cis 2-((3,3-difluoro-1-(2-hydroxyacetyl)-5-methylpiperidin-4-yl)oxy)-5-(4-((4-(4-(oxetan-3-yl)piperazin-1-yl)phenyl)amino)-1,3,5-triazin-2-yl)benzonitrile], the figures for the IC50 at IKKε (setting [1]), at hJAK2 and on TBK1 were 2 nM, 65 nM and 4 nM, respectively.

On to `N#Cc1cc(-c2ncnc(Nc3ccc(N4CCN(C5COC5)CC4)cc3)n2)ccc1O[C@H]1CCN(C(=O)c2cn(CCO)nn2)C[C@H]1F` [Example 376], for which the IC50 on IKKε amounted to 3 nM; at hJAK2 it was 127 nM; at TBK1, 5 nM.

`Cc1cc(Nc2ncnc(-c3ccc(O[C@H]4CCN(C(=O)[C@H](C)O)C[C@H]4F)c(C#N)c3)n2)ccc1N1CCN(C2COC2)CC1` [Example 396, 2-(((3R,4S)-3-fluoro-1-((S)-2-hydroxypropanoyl)piperidin-4-yl)oxy)-5-(4-((3-methyl-4-(4-(oxetan-3-yl)piperazin-1-yl)phenyl)amino)-1,3,5-triazin-2-yl)benzonitrile]: the values for the IC50 at IKKε, on hJAK2 and on TBK1 were 1 nM, 137 nM and 2 nM, respectively.

Regarding `N#Cc1cc(-c2ncnc(Nc3ccc(N4CCN(C5COC5)CC4)cc3)n2)ccc1O[C@H]1CCN(C(=O)c2nccnc2N)C[C@H]1F` [Example 339, 2-(((3R,4S)-1-(3-aminopyrazine-2-carbonyl)-3-fluoropiperidin-4-yl)oxy)-5-(4-((4-(4-(oxetan-3-yl)piperazin-1-yl)phenyl)amino)-1,3,5-triazin-2-yl)benzonitrile], the IC50 came to 58 nM on IKKε, 54 nM at hJAK2 and 14 nM on TBK1.

For `N#Cc1cc(-c2ncnc(Nc3ccc(OCCN4CCCC4)cc3)n2)ccc1OC1CCOCC1` [Example 332, 5-(4-((4-(2-(pyrrolidin-1-yl)ethoxy)phenyl)amino)-1,3,5-triazin-2-yl)-2-((tetrahydro-2H-pyran-4-yl)oxy)benzonitrile], the figures for the IC50 at IKKε, at hJAK2 and at TBK1 were 5 nM, 943 nM and 10 nM, respectively.

Consider `N#Cc1cc(-c2ncnc(Nc3ccc(N4CCN(C5COC5)CC4)cc3)n2)ccc1O[C@H]1CCN(C(=O)C2(O)CC2)C[C@H]1F` [Example 140, 2-(((3R,4S)-3-fluoro-1-(1-hydroxycyclopropanecarbonyl)piperidin-4-yl)oxy)-5-(4-((4-(4-(oxetan-3-yl)piperazin-1-yl)phenyl)amino)-1,3,5-triazin-2-yl)benzonitrile], for which the IC50 was 10 nM on IKKε, 341 nM on hJAK2 and 6 nM against TBK1.

For `C[C@H](O)C(=O)N1CC[C@H](Oc2ccc(-c3ncnc(Nc4ccc(N5CCN(C6COC6)[C@@H](CO)C5)cc4)n3)cc2C#N)[C@H](F)C1` [Example 468, 2-(((3R,4S)-3-fluoro-1-((S)-2-hydroxypropanoyl)piperidin-4-yl)oxy)-5-(4-((4-((R)-3-(hydroxymethyl)-4-(oxetan-3-yl)piperazin-1-yl)phenyl)amino)-1,3,5-triazin-2-yl)benzonitrile], the values for the IC50 at IKKε (setting [1]), at hJAK2 and against TBK1 were 2 nM, 486 nM and 3 nM, respectively.

Take `NC(=O)c1cc(-c2ncnc(Nc3ccc(N4CCN(C5COC5)CC4)cc3)n2)ccc1OC1CNC(=O)C(F)(F)C1` (stereo not drawn) [Example 447, 2-((5,5-difluoro-6-oxopiperidin-3-yl)oxy)-5-(4-((4-(4-(oxetan-3-yl)piperazin-1-yl)phenyl)amino)-1,3,5-triazin-2-yl)benzamide]: the IC50 amounted to 197 nM at IKKε (setting [1]), 15 nM on hJAK2 and 65 nM on TBK1.

On to `Cc1cc(N2CCOCC2)ccc1Nc1ncnc(-c2ccc(OC3CCOCC3)c(C#N)c2)n1` [Example 109, 5-(4-((2-methyl-4-morpholinophenyl)amino)-1,3,5-triazin-2-yl)-2-((tetrahydro-2H-pyran-4-yl)oxy)benzonitrile], for which the IC50 on IKKε is 161 nM; at hJAK2 it was more than 1000 nM; on TBK1 it was 76 nM.

Consider `COc1cc(Nc2ncnc(-c3ccc(N4C[C@H](O)CCC4=O)c(C#N)c3)n2)ccc1N1CCN(C2COC2)CC1` [Example 399, (R)-2-(5-hydroxy-2-oxopiperidin-1-yl)-5-(4-((3-methoxy-4-(4-(oxetan-3-yl)piperazin-1-yl)phenyl)amino)-1,3,5-triazin-2-yl)benzonitrile], for which the IC50 at IKKε (setting [1]) amounted to 270 nM; at hJAK2, 174 nM; against TBK1, 152 nM.

Turning to `N#Cc1cc(-c2ncnc(Nc3ccc(N4CCN(C5COC5)CC4)cc3)n2)ccc1O[C@H]1CCN(C(=O)c2cccc(=O)[nH]2)C[C@H]1F` [Example 413, 2-(((3R,4S)-3-fluoro-1-(6-oxo-1,6-dihydropyridine-2-carbonyl)piperidin-4-yl)oxy)-5-(4-((4-(4-(oxetan-3-yl)piperazin-1-yl)phenyl)amino)-1,3,5-triazin-2-yl)benzonitrile], the IC50 at IKKε (setting [1]) turned out to be 2 nM; on hJAK2 it was 109 nM; on TBK1 it was 3 nM.

Regarding `N#Cc1cc(-c2ncnc(Nc3ccc(N4CCN(C5COC5)CC4)cc3)n2)ccc1OCC1CC1` [Example 58, 2-(cyclopropylmethoxy)-5-(4-((4-(4-(oxetan-3-yl)piperazin-1-yl)phenyl)amino)-1,3,5-triazin-2-yl)benzonitrile], the IC50 at IKKε was 4 nM; on hJAK2 it was 455 nM; at TBK1, 2 nM.

As for `N#Cc1cc(-c2ncnc(Nc3ccc(N4CCN(C5COC5)CC4)cc3)n2)ccc1O[C@H]1CCN(C(=O)[C@@H]2CNC(=O)C2)C[C@H]1F` [Example 548, 2-(((3R,4S)-3-fluoro-1-((S)-5-oxopyrrolidine-3-carbonyl)piperidin-4-yl)oxy)-5-(4-((4-(4-(oxetan-3-yl)piperazin-1-yl)phenyl)amino)-1,3,5-triazin-2-yl)benzonitrile], the IC50 on IKKε (setting [1]) is 96 nM; at hJAK2 it was 353 nM; against TBK1 it was 21 nM.

For `N#Cc1cc(-c2ncnc(Nc3ccc(N4CCN(C5COC5)CC4)cc3)n2)ccc1N1CC[C@H](F)C1` [Example 201, (S)-2-(3-fluoropyrrolidin-1-yl)-5-(4-((4-(4-(oxetan-3-yl)piperazin-1-yl)phenyl)amino)-1,3,5-triazin-2-yl)benzonitrile], the IC50 on IKKε is 5 nM; on hJAK2 it was 69 nM; against TBK1 it was 1 nM.

As for `C[C@H]1CN(C2COC2)CCN1c1ccc(Nc2ncnc(-c3ccc(O[C@H]4CCN(C(=O)CC#N)C[C@H]4F)c(C#N)c3)n2)cc1` [Example 250, 2-(((3R,4S)-1-(2-cyanoacetyl)-3-fluoropiperidin-4-yl)oxy)-5-(4-((4-((S)-2-methyl-4-(oxetan-3-yl)piperazin-1-yl)phenyl)amino)-1,3,5-triazin-2-yl)benzonitrile], the IC50 on IKKε was determined as 5 nM; on hJAK2, 127 nM; on TBK1, 3 nM.
